Ends that are not written are not given here.
Experiments:
[1] = test system: rats with anti-Thy1 disease; assay: Functional parameters (proteinuria, creatinine clearance, blood urea nitrogen, systolic blood pressure) in the anti-Thy1 model; type: in vivo, rat
Source text: (§1) Experimental design. Experimental mesangial proliferative glomerulonephritis was induced using the monoclonal mouse anti-Thy1 antibody OX-7. Peptides were continuously infused intravenously (i.v.) via jugular vein using osmotic minipumps starting sixteen hours after disease induction. The effects of the hexapeptide AAWSHW (SEQ ID NO:22) (that interferes with the TSP1-mature TGF-β interaction) or the LSKL-peptide (SEQ ID NO:21) (that blocks the TSP1-LAP interaction) were compared to a control peptide (SLLK) in the anti-Thy1 model. Tissues from different time points (days three, five, eight) of this experiment were analyzed in regard to mesangiolysis, macrophage-influx, MC-proliferation, MC-activation, microaneurysm and matrix formation, GEN proliferation, TSP1, TGF-β1 and 2, as well as TGF-βRI and RII. Functional parameters such as blood pressure, proteinuria, and creatinine clearance were also determined. On day eight, glomerular secretion of active TGF-β was determined in individual animals by incubating isolated glomeruli for twenty-four hours in DMEM and measuring TGF-β activity in glomerular supernatants using the NRK-bioassay.
(§2) Animal model Experimental mesangial proliferative glomerulonephritis (anti-Thy1 model) was induced in Sprague Dawley rats (180-200 g; Charles River, Sulzfeld, Germany) by a single injection of 1 mg/kg of the mouse monoclonal anti-Thy1 antibody OX-7 (European Collection of Animal Cell Culture, Salisbury, England). In this animal model, complete anti-Thy1 antibody binding occurs within an hour (Johnson et al. (1991) Am. J. Pathol. 138 (2), 313-21). To avoid potential interference of the LAP-peptides with anti-Thy1 antibody binding and subsequent mesangiolysis, the peptide treatment was started sixteen hours after disease induction, when binding of the anti-Thy1 antibody to the mesangium and subsequent mesangiolysis had already occurred. The peptides used in this study were synthesized, purified, and analyzed as described elsewhere (Crawford et al. (1998) Cell 93, 1159-1170).
(§3) Renal biopsies as described previously (Hugo et al. (1997) J. Clin. Invest. 100, 786-794) were performed on days three and five, and the experiment was finished on day eight. To determine DNA incorporation into proliferating cells, each animal was injected intravenously with BrdU (50 mg/kg bw) ninety minutes before the second survival biopsy was taken on day five (peak of MC proliferation). Renal biopsies were fixed in methyl Carnoy's, 10% formalin and/or OCT and snap frozen. A twenty-four hour urine collection for measurement of protein and creatinine was done from day seven to eight, when maximal proteinuria occurs in this model (unpublished observation). Blood pressure measurements were done twice before and twice after disease induction. In renal biopsies, the frequency of glomerular microaneurysms, the number of infiltrating macrophages, the number of proliferating MC, the expression of the contractile protein α-sm actin as a marker of MC-activation, and the expression of TGF-β1, TGF-β2, TGF-βRI, TGF-βRII, TSP1, as well as of extracellular matrix proteins such as collagen I, collagen IV and fibronectin were determined. For TGF-β activity measurements in individual animals on day eight, glomeruli were isolated by differential sieving (Johnson et al. (1991) Am. J. Pathol. 138 (2), 313-21) and counted using five aliquots. Glomerular isolates were discarded if purity was less than 95%. 8000 glomeruli/ml were incubated in DMEM at 37° C. After a twenty-four hour incubation period, glomerular supernatants were stored by −70° C. until TGF-β activity measurements were done.
(§4) Peptide infusion. All peptides (at a concentration of 3.5 mg/ml) were continuously infused for seven days via a catheter in the right jugular vein using osmotic minipumps (Alzet Corp./Charles River, Sulzfeld, Germany). […]

[2] = test system: rats with anti-Thy1 disease; assay: Glomerular MC-proliferation, MC-activation and macrophage influx in the anti-Thy1 model; type: in vivo, rat
Source text: as §1, §2, §3, §4

[3] = test system: rats with anti-Thy1 disease; assay: Glomerular extracellular matrix formation (Masson's Trichrome, collagen I, collagen IV, fibronectin stains) in the anti-Thy1 model; type: in vivo, rat
Source text: as §1, §2, §3, §4

TGF-β = assay: Glomerular secretion of active TGF-β (NRK-bioassay of supernatants of isolated glomeruli) in anti-Thy1 rats; type: in vivo, rat
Source text: as §1, §2
as §3, with “After a twenty-four hour incubation period, glomerular supernatants were stored by −70° C. until TGF-β activity measurements were done.” left out

[4] = test system: rats with anti-Thy1 disease; assay: Glomerular immunostaining score for TGF-β1, TGF-β2, TGF-βRI, TGF-βRII and TSP1 in the anti-Thy1 model; type: in vivo, rat
Source text: as §1, §2, §3, §4

[5] = test system: activation of TGF-β by TSP1; conditions: background, literature; cited from earlier work
[6] = test system: rats with anti-Thy1 disease; assay: Mesangiolysis, microaneurysm formation and GEN-proliferation in the anti-Thy1 model; type: in vivo, rat
Source text: as §1, §2, §3, §4

## AAWSHW
[1]; day 8 (urine collection day seven to eight)
  Proteinuria (mg/24 hours): 51 ± 50 mg/24 hours
[1]; days seven to eight
  twenty-four hour proteinuria: 51±50 mg/twenty-four hours
[1]; rat, in vivo
  Blood urea nitrogen: 23.6 ± 7.1 mg/dL
[2]; day 3
  MC-activation α-sm actin (score 0-4): 1.1 ± 0.5 score 0-4
  MC-proliferation (OX-7 + /PCNA + cells/glomerulus): 3.1 ± 0.8 cells/glomerulus
  Macrophages (ED-1 + cells/glomerulus): 3.0 ± 1.8 cells/glomerulus
[2]; day 5
  MC-activation α-sm actin (score 0-4): 2.8 ± 0.5 score 0-4
  MC-proliferation (OX-7 + /BrdU + cells/glomerulus): 4.6 ± 1.9 cells/glomerulus
  MC-proliferation (OX-7 + /PCNA + cells/glomerulus): 8.5 ± 1.6 cells/glomerulus
  Macrophages (ED-1 + cells/glomerulus): 0.9 ± 0.5 cells/glomerulus
[2]; day 8
  MC-activation α-sm actin (score 0-4): 2.5 ± 0.4 score 0-4
  MC-proliferation (OX-7 + /PCNA + cells/glomerulus): 3.9 ± 0.8 cells/glomerulus
  Macrophages (ED-1 + cells/glomerulus): 0.7 ± 0.3 cells/glomerulus
[2]; in words
  MC activation (de novo expression of α-sm-actin): did not significantly alter
[3]; day 3
  Matrix Collagen 1 (score 0-4): 0.1 ± 0.1 score 0-4
  Matrix Collagen IV (score 0-4): 1.0 ± 0.5 score 0-4
  Matrix Fibronectin (score 0-4): 1.3 ± 0.3 score 0-4
  Matrix Trichrome (score 0-3): 0.5 ± 0.3 score 0-3
[3]; day 5
  Matrix Collagen 1 (score 0-4): 0.8 ± 0.6 score 0-4
  Matrix Collagen IV (score 0-4): 2.1 ± 0.6 score 0-4
  Matrix Fibronectin (score 0-4): 1.9 ± 1.2 score 0-4
  Matrix Trichrome (score 0-3): 0.9 ± 0.3 score 0-3
[3]; day 8
  Matrix Collagen 1 (score 0-4): 1.0 ± 0.6 score 0-4
  Matrix Collagen IV (score 0-4): 1.3 ± 0.5 score 0-4
  Matrix Fibronectin (score 0-4): 1.2 ± 0.8 score 0-4
  Matrix Trichrome (score 0-3): 1.4 ± 0.4 score 0-3
[3]; day eight, in words
  extracellular matrix formation as determined by Trichrome staining: markedly suppressed
[3]; time course of anti-Thy1 disease, in words
  glomerular accumulation of collagen I, collagen IV and fibronectin by immunohistochemistry: reduced glomerular accumulation of all three extracellular matrix proteins
TGF-β; day 8 glomeruli, 24 h supernatant, NRK-bioassay, continuous i.v. peptide infusion
  Active TGF-β (colonies > 62 um): 220 ± 70 colonies > 62 um
TGF-β; day eight glomeruli, p<0.01
  glomerular secretion of active TGF-β compared to control peptide (SLLK) treated rats: markedly reduced
[4]; day 3
  TGF-β1 (score 0-4): 0.4 ± 0.2 score 0-4
  TGF-β2 (score 0-4): 0.4 ± 0.3 score 0-4
  TGF-βRI (score 0-4): 0.5 ± 0.3 score 0-4
  TGF-βRII (score 0-4): 0.5 ± 0.5 score 0-4
  TSP I (score 0-4): 0.6 ± 0.2 score 0-4
[4]; day 5
  TGF-β1 (score 0-4): 1.9 ± 0.9 score 0-4
  TGF-β2 (score 0-4): 1.1 ± 0.7 score 0-4
  TGF-βRI (score 0-4): 1.9 ± 0.4 score 0-4
  TGF-βRII (score 0-4): 1.4 ± 0.6 score 0-4
  TSP I (score 0-4): 1.5 ± 0.9 score 0-4
[4]; day 8
  TGF-β1 (score 0-4): 1.6 ± 1.1 score 0-4
  TGF-β2 (score 0-4): 0.5 ± 0.4 score 0-4
  TGF-βRI (score 0-4): 1.6 ± 0.6 score 0-4
  TGF-βRII (score 0-4): 1.2 ± 0.5 score 0-4
  TSP I (score 0-4): 0.8 ± 0.7 score 0-4
[5]
  block of activation of TGF-β by TSP1: able to block activation of TGF-β by TSP1
[6]; day 3
  Glomerular Microaneurysm (in percent): 12.2 ± 11.6%
[6]; day 5
  Glomerular Microaneurysm (in percent): 15.5 ± 11.8%
[6]; day 8
  Glomerular Microaneurysm (in percent): 1.6 ± 1.8%
[6]; day three
  Glomerular GEN-proliferation (double staining for RECA-1 and PCNA): 1.8±0.6
[6]; day three, scale 0-IV
  mesangiolysis scores: 2.5±0.4
